These results are taken from patent US20230365589A1, “NOVEL AMINE DERIVATIVES” (Sumitomo Pharma Co., Ltd., priority 2020, published 2023).

Like-named read-outs stand apart in the source and are kept apart here.

What all share (assay type): biochemical
One assay deals with T1, DYRK1A (Homo sapiens, UniProt Q13627).
T1 construct: purchased Carna Biosciences, Inc. 04-130
The assay can be described thus: Inhibition test on activity of DYRK family, mobility shift assay (MSA): DYRK1A. The essentials: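 Mobility shift assay with recombinant DYRK1A (0.2 ng/μL enzyme solution), FITC-DYRKtide substrate (4 μM in substrate mix), 100 μM ATP in substrate mix, HEPES pH 7.5 buffer with MgCl2; 1 h at room temperature. Phosphorylated vs unphosphorylated peptide peaks quantified; IC50 from regression of inhibition rate against log concentration.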

For the next assay, the target named is T2, DYRK2 (Homo sapiens, UniProt Q92630).
T2 construct: purchased Carna Biosciences, Inc. 04-132
T2 sequence (Q92630 74-601 limits assumed): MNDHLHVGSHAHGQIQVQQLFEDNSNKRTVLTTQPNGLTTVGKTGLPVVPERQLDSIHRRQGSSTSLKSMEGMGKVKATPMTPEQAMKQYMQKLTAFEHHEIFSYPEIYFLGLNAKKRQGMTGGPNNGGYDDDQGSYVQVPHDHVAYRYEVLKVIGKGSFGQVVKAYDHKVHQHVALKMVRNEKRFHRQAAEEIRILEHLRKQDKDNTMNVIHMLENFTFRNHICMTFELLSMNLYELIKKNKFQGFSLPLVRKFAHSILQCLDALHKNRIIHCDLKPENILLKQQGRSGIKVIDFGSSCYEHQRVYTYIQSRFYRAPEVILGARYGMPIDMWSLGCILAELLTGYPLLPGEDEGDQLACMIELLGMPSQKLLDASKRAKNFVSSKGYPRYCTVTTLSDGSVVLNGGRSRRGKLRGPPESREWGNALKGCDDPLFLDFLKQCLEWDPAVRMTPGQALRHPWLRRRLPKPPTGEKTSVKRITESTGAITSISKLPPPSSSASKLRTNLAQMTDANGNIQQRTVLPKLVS
The experiment in a line: Inhibition test on activity of DYRK family, mobility shift assay (MSA): DYRK2. The method in brief: (§1)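 Mobility-shift readout of FITC-DYRKtide phosphorylation in 20 mM HEPES pH 7.5. The substrate mix held 4 µM peptide, 20 mM MgCl2 and ATP at 100 (1A), 200 (1B), 40 (2) or 20 µM (3). Reaction 1 h at room temperature; IC50 from regression of P/(P+S)-based inhibition vs log concentration.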

Another assay has as its target T3, DYRK3 (Homo sapiens, UniProt O43781).
T3 construct: purchased Carna Biosciences, Inc. 04-133
T3 sequence (O43781 1-568 isoform O43781-2): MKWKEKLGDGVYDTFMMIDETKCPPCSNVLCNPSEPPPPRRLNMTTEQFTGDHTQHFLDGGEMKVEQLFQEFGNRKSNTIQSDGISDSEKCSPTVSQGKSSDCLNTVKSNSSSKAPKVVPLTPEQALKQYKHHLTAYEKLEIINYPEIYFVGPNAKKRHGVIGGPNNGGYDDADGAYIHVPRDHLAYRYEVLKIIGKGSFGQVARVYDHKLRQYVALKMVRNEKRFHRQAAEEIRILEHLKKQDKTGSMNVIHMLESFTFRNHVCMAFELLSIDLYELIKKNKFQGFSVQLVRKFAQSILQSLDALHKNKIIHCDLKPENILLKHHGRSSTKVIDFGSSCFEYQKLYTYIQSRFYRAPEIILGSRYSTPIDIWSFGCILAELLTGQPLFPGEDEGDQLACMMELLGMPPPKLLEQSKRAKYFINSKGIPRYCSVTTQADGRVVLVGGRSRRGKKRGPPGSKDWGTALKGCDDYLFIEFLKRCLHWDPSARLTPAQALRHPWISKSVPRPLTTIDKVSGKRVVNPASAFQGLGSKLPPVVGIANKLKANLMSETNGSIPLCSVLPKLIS
The experiment in a line: Inhibition test on activity of DYRK family, mobility shift assay (MSA): DYRK3. The method in brief: as §1

The target in a further assay is T4, DYRK1B (Homo sapiens, UniProt Q9Y463).
T4 construct: purchased Carna Biosciences, Inc. 04-131
T4 sequence (Q9Y463 whole entry): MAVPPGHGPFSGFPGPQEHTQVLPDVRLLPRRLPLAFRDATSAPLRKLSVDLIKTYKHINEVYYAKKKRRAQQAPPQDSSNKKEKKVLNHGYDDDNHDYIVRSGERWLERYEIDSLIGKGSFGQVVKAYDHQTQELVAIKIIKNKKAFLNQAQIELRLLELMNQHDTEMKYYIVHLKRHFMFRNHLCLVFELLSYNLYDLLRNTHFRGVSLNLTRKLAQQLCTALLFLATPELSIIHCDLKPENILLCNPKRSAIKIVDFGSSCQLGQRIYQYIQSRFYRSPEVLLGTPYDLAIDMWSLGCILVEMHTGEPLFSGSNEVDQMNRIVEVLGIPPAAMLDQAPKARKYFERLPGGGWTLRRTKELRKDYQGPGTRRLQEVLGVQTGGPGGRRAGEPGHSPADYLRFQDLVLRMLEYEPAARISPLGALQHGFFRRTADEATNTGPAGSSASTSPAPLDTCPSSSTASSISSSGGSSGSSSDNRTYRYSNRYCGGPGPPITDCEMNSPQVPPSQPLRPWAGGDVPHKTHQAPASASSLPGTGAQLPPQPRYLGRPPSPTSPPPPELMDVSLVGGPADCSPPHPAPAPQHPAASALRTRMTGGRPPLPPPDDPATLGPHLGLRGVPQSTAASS
The assay can be described thus: Inhibition test on activity of DYRK family, mobility shift assay (MSA): DYRK1B. Here is the method:
[Inhibition Test on Activity of DYRK Family (DYRK1A, DYRK1B, DYRK2, and DYRK3)]
The kinase activity was measured by mobility shift assay (MSA) method using QuickScout Screening Assist™ MSA (commercially available kit manufactured by Carna Biosciences, Inc.). The substrate of the kinase reaction used was an FITC-labeled DYRKtide peptide included in the kit. An assay buffer [20 mM HEPES, 0.01% Triton X-100™, 2 mM dithiothreitol, pH 7.5]was used to create a substrate mixture solution with a substrate (4 μM), MgCl2(20 mM), and ATP (DYRK1A: 100 μM; DYRK1B: 200 μM; DYRK2: 40 μM; and DYRK3: 20 μM). In addition, kinases (DYRK1A: manufactured by Carna Biosciences, Inc., Cat. No. 04-130; DYRK1B: manufactured by Carna Biosciences, Inc., Cat. No. 04-131; DYRK2; manufactured by Carna Biosciences, Inc., Cat. No. 04-132; and DYRK3; manufactured by Carna Biosciences, Inc., Cat. No. 04-133) were diluted with the assay buffer to prepare enzyme solutions (DYRK1A: 0.2 ng/μL; DYRK1B: 0.08 ng/μL; DYRK2: 0.04 ng/μL; and DYRK3: 0.25 ng/μL). The 10 mM solution of the test compound in DMSO was further diluted with DMSO to 10 levels of the concentration (0.00003 mM, 0.0001 mM, 0.0003 mM, 0.001 mM, 0.003 mM, 0.01 mM, 0.03 mM, 0.1 mM, 0.3 mM, and 1 mM), each of which was subjected to 25-fold dilution with the assay buffer to obtain a drug solution (4% DMSO solution). 5 μL of the drug solution or a control solution (4% DMSO-assay buffer), 5 μL of the substrate mixture solution, and 10 μL of the enzyme solution were mixed in the wells of a polypropylene 384-well plate and allowed to react at room temperature for 1 hour, and then the reaction was quenched by adding 60 μL of the termination buffer included in the kit. Subsequently, the quantities of the substrates (S) and the phosphorylated substrate (P) in the reaction solution were measured using LabChip EZ Reader II system (manufactured by Caliper Life Sciences) according to the protocol of the assay kit.
The heights of the peaks of the “substrate” and the “phosphorylated substrate” were expressed as S and P, respectively, and a blank containing the assay buffer instead of the enzyme solution was also measured.
The inhibition rate (%) of the test compound was calculated according to the following equation:
Inhibition rate (%)=(1−(C−A)/(B−A))×100 • wherein, A, B, and C represent P/(P+S) of the blank well, P/(P+S) of the control solution well, and P/(P+S) of the compound-containing well, respectively.
The IC50 value was calculated via a regression analysis of the inhibition rate and the test compound concentration (logarithmic value).
The inhibiting activities of representative compounds of the present invention are shown against DYRK1A, DYRK1B, DYRK2, and DYRK3 in Tables.

Setting [1] is: MSA, FITC-labeled DYRKtide peptide, ATP 100 μM, read-out: Inhibitory activity DYRK 1A (IC50 class).
Where [2] appears, read: MSA, FITC-labeled DYRKtide peptide, ATP 40 μM, read-out: Inhibitory activity DYRK 2 (IC50 class).
The mark [3] stands for this setting: MSA, FITC-labeled DYRKtide peptide, ATP 20 μM, read-out: Inhibitory activity DYRK 3 (IC50 class).
Where [4] appears, read: MSA, FITC-labeled DYRKtide peptide, ATP 200 μM, read-out: Inhibitory activity DYRK 1B (IC50 class).
Where [5] appears, read: read-out: Inhibitory activity DYRK 1A.
The mark [6] stands for this setting: read-out: Inhibitory activity DYRK 2.
[7] abbreviates: read-out: Inhibitory activity DYRK 3.
Setting [8] is: read-out: Inhibitory activity DYRK 1B.

Regarding `C[C@H]1OC[C@@H]2NC(=O)N(c3nc4c5c(ccc4s3)OCC5)[C@@H]21` [Example 161, (3aR,6R,6aS)-1-(7,8-Dihydrofuro[3,2-e][1,3]benzothiazol-2-yl)-6-methyltetrahydro-1H-furo[3,4-d]imidazol-2(3H)-one], the IC50 fell in the range of 0.01 to 0.1 µM on DYRK1A (setting [1]), 0.01 to 0.1 µM at DYRK2 (setting [2]), 0.1 to 1 µM at DYRK3 (setting [3]) and 0.01 to 0.1 µM on DYRK1B (setting [4]).

For `N#CCN1CC[C@@H]2NC(=O)N(c3nc4c5c(ccc4s3)OCC5)[C@@H]2C1` (racemic) [Example 100, rac-[(3aR,7aS)-3-(7,8-dihydrofuro[3,2-e][1,3]benzothiazol-2-yl)-2-oxooctahydro-5H-imidazo[4,5-c]pyridin-5-yl]acetonitrile], the IC50 on DYRK1A (setting [5]) was less than 0.01 µM; at DYRK2 (setting [6]) it was no less than 1 µM; at DYRK3 (setting [7]), no less than 1 µM; at DYRK1B (setting [8]), 0.01 to 0.1 µM.

Consider `O=C1N[C@H]2COCC[C@H]2N1c1nc2c3c(ccc2s1)OCC3` [Example 122, (3aR,7aR)-1-(7,8-dihydrofuro[3,2-e][1,3]benzothiazol-2-yl)hexahydropyrano[3,4-d]imidazol-2(3H)-one], for which the IC50 at DYRK1A (setting [5]) was less than 0.01 µM; on DYRK2 (setting [6]), 0.1 to 1 µM; at DYRK3 (setting [7]), 0.1 to 1 µM; at DYRK1B (setting [8]), less than 0.01 µM.

In the case of `O=C1N[C@H]2CO[C@H](CF)[C@H]2N1c1nc2c3c(ccc2s1)OCC3` [Example 159, (3aR,6S,6aS)-1-(7,8-dihydrofuro[3,2-e][1,3]benzothiazol-2-yl)-6-(fluoromethyl)tetrahydro-1H-furo[3,4-d]imidazol-2(3H)-one], the IC50 is less than 0.01 µM at DYRK1A (setting [1]), 0.01 to 0.1 µM on DYRK2 (setting [2]), 0.01 to 0.1 µM on DYRK3 (setting [3]) and 0.01 to 0.1 µM at DYRK1B (setting [4]).

For `CN1CC[C@@H]2[C@H](C1)NC(=O)N2c1nc2c3c(ccc2s1)OCC3` (relative stereo) [Example 9, cis-1-(7,8-dihydrofuro[3,2-e][1,3]benzothiazol-2-yl)-5-methyloctahydro-2H-imidazo[4,5-c]pyridin-2-one], the IC50 on DYRK1A (setting [1]) is 0.01 to 0.1 µM; at DYRK2 (setting [2]), 0.1 to 1 µM; on DYRK3 (setting [3]), 0.1 to 1 µM; on DYRK1B (setting [4]), 0.01 to 0.1 µM.

As for `C[C@H]1C[C@@H]2[C@H](CO1)NC(=O)N2c1nc2c3c(ccc2s1)OCC3` [Example 38, (3aR,6S,7aR)-1-(7,8-dihydrofuro[3,2-e][1,3]benzothiazol-2-yl)-6-methylhexahydropyrano[3,4-d]imidazol-2(3H)-one], the IC50 on DYRK1A (setting [1]) is less than 0.01 µM; at DYRK2 (setting [2]) it was 0.1 to 1 µM; on DYRK3 (setting [3]), 0.1 to 1 µM; at DYRK1B (setting [4]), less than 0.01 µM.

As to `CN1CC[C@@H]2NC(=O)N(c3nc4c5c(ccc4s3)OCC5)[C@@H]2C1` (relative stereo) [Example 7, cis-3-(7,8-Dihydrofuro[3,2-e][1,3]benzothiazol-2-yl)-5-methyloctahydro-2H-imidazo[4,5-c]pyridin-2-one], the IC50 on DYRK1A (setting [1]) was 0.01 to 0.1 µM; on DYRK2 (setting [2]), no less than 1 µM; at DYRK3 (setting [3]), no less than 1 µM; at DYRK1B (setting [4]), 0.01 to 0.1 µM.

Turning to `C[C@H]1NC(=O)N(c2nc3c4c(ccc3s2)OCC4)[C@@H]1CN1CCOCC1` [Example 24, (4R,5R)-1-(7,8-dihydrofuro[3,2-e][1,3]benzothiazol-2-yl)-4-methyl-5-[(morpholin-4-yl)methyl]imidazolidin-2-one], the IC50 on DYRK1A (setting [1]) is 0.01 to 0.1 µM; at DYRK2 (setting [2]), no less than 1 µM; at DYRK3 (setting [3]), no less than 1 µM; at DYRK1B (setting [4]), 0.01 to 0.1 µM.

For `O=C1N[C@H]2CCN(C3CC3)C[C@H]2N1c1nc2c3c(ccc2s1)OCO3` (single isomer, unassigned) [Example 36], the IC50 on DYRK1A (setting [1]) was less than 0.01 µM; on DYRK2 (setting [2]), no less than 1 µM; at DYRK3 (setting [3]) it was no less than 1 µM; on DYRK1B (setting [4]), less than 0.01 µM.

As to `O=C1N[C@H]2CO[C@@H](CF)C[C@H]2N1c1nc2c3c(ccc2s1)OCO3` [Example 140, (3aR,6R,7aR)-1-(2H-[1,3]dioxolo[4,5-e][1,3]benzothiazol-7-yl]-6-(fluoromethyl)hexahydropyrano[3,4-d]imidazol-2(3H)-one], the IC50 at DYRK1A (setting [1]) is less than 0.01 µM; on DYRK2 (setting [2]), 0.01 to 0.1 µM; on DYRK3 (setting [3]), 0.01 to 0.1 µM; at DYRK1B (setting [4]) it was less than 0.01 µM.

Turning to `C[C@H]1C[C@@H]2[C@H](CO1)NC(=O)N2c1nc2c3c(ccc2s1)OCCO3` [Example 39, (3aR,6S,7aR)-1-(7,8-dihydro[1,4]dioxino[2,3-e][1,3]benzothiazol-2-yl)-6-methylhexahydropyrano[3,4-d]imidazol-2(3H)-one], the IC50 on DYRK1A (setting [1]) was less than 0.01 µM; on DYRK2 (setting [2]) it was 0.1 to 1 µM; at DYRK3 (setting [3]), 0.1 to 1 µM; at DYRK1B (setting [4]), less than 0.01 µM.

On to `CN1CC[C@@H]2NC(=O)N(c3nc4c5c(ccc4s3)OCC5)[C@@H]2C1` (single isomer, unassigned) [Example 28], for which the IC50 at DYRK1A (setting [1]) is 0.01 to 0.1 µM; at DYRK2 (setting [2]) it was no less than 1 µM; at DYRK3 (setting [3]) it was no less than 1 µM; at DYRK1B (setting [4]), 0.01 to 0.1 µM.
